From PMC7176092, “Development of the first in vivo GPR17 ligand through an iterative drug discovery pipeline: A novel disease-modifying strategy for multiple sclerosis” (PLoS ONE, 2020)
Several values for one entry are separate records, joined by “and”; a condition that tells them apart may be missing. Equal entries are not always repeated. Where two headings read alike, the source gives them in different places.

Key:
OPC-DRG co-cultures = assay: In vitro myelination assay; format: cell-based, rat OPCs, mouse DRG; settings: 10 nM; CTRL 100%; mean ± S.E.M.
Method: OPC-DRG co-cultures were prepared according to a previously described protocol.
DRG explants from E14.5 mice were directly put in culture after being plucked off from embryo spinal cords. Then, they were grown in Neurobasal medium (Life Technologies) in presence of 100 ng/ml nerve growth factor (NGF, Sigma-Aldrich), and in presence of 10 μM fluorodeoxyuridine (FUDR, Sigma-Aldrich) in order to remove all non-neuronal cells.
Purified primary rat OPCs were obtained from mixed glial cultures by orbital shaking for 3 hours. […]
At day 15, OPC/DRG co-cultures treated with either the selected compounds or the vehicle were fixed and treated with rat anti-MBP (Millipore), mouse anti-SMI 31 and mouse anti-SMI 32 (Cell Signaling), followed by the secondary goat anti-rat/-mouse antibody, conjugated to Alexa Fluor 555 or Alexa Fluor 488 (Life Technologies). The quantification of myelin segments was performed following a previously described protocol with ZEISS LSM Image Browser by acquiring 6 random fields of 4–5 coverslips for each experimental condition. […] The amount of myelin per axon (myelination index) was calculated as the ratio between the white pixels area and the green pixels area. […]

ADR2B = biological target: T1, ADR2B (Homo sapiens, UniProt P18089); assay: Binding assay ADR2B; settings: 100 nM
T1 construct: Eurofins Cerep (external service)
T1 sequence (P18089 1-450): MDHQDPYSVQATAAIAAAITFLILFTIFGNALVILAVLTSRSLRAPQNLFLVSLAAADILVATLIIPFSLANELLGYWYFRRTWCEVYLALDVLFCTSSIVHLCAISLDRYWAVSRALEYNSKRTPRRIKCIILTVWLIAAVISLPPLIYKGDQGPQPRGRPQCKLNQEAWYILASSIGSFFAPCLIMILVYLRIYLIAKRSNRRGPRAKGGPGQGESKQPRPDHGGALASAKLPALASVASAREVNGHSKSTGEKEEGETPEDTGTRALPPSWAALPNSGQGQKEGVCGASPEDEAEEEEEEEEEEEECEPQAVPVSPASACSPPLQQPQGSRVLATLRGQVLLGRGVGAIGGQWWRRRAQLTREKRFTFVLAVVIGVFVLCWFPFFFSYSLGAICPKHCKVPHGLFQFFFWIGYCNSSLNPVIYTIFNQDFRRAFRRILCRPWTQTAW

CCR4 = biological target: T2, CCR4 (Homo sapiens, UniProt P51679); assay: Cellular functional assay CCR4
T2 sequence (P51679 1-360): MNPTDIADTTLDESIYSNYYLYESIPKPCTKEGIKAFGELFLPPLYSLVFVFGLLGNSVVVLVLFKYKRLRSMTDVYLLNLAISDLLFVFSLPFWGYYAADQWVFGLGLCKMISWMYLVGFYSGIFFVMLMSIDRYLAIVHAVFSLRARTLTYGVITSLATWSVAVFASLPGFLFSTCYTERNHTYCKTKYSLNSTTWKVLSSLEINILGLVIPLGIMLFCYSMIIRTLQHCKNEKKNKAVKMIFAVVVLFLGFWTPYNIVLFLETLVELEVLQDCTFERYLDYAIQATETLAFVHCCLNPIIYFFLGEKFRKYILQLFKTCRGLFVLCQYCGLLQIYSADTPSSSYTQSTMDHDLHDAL

mGluR5 = biological target: T3, mGluR5 (Homo sapiens, UniProt P41594); assay: Binding assay mGluR5; settings: 100 nM
T3 construct: Eurofins Cerep (external service)

M4 = biological target: T4, M4 (Homo sapiens, UniProt P08173); assay: Binding assay M4; settings: 100 nM
T4 construct: Eurofins Cerep (external service)
T4 sequence (P08173 1-479): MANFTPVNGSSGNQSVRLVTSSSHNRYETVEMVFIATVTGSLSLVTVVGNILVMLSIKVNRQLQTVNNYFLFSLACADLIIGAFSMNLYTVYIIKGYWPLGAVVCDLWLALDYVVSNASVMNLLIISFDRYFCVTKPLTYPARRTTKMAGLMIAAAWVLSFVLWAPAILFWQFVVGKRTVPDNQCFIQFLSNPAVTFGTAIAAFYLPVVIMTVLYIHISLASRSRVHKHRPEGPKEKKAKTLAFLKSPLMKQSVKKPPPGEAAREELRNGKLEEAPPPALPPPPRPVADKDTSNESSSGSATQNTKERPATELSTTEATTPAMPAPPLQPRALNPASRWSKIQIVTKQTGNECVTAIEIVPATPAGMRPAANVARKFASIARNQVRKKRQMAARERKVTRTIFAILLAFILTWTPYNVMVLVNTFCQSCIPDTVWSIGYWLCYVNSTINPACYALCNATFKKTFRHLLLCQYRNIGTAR

[1] = mean of 2, read-out: % Of control specific binding, Mean
[2] = read-out: % Inhibition of control specific binding
[3] = single replicates 1 and 2, 0.1 µM
[4] = single replicates 1 and 2, read-out: % Of control specific binding

T3 sequence (P41594 21-1212): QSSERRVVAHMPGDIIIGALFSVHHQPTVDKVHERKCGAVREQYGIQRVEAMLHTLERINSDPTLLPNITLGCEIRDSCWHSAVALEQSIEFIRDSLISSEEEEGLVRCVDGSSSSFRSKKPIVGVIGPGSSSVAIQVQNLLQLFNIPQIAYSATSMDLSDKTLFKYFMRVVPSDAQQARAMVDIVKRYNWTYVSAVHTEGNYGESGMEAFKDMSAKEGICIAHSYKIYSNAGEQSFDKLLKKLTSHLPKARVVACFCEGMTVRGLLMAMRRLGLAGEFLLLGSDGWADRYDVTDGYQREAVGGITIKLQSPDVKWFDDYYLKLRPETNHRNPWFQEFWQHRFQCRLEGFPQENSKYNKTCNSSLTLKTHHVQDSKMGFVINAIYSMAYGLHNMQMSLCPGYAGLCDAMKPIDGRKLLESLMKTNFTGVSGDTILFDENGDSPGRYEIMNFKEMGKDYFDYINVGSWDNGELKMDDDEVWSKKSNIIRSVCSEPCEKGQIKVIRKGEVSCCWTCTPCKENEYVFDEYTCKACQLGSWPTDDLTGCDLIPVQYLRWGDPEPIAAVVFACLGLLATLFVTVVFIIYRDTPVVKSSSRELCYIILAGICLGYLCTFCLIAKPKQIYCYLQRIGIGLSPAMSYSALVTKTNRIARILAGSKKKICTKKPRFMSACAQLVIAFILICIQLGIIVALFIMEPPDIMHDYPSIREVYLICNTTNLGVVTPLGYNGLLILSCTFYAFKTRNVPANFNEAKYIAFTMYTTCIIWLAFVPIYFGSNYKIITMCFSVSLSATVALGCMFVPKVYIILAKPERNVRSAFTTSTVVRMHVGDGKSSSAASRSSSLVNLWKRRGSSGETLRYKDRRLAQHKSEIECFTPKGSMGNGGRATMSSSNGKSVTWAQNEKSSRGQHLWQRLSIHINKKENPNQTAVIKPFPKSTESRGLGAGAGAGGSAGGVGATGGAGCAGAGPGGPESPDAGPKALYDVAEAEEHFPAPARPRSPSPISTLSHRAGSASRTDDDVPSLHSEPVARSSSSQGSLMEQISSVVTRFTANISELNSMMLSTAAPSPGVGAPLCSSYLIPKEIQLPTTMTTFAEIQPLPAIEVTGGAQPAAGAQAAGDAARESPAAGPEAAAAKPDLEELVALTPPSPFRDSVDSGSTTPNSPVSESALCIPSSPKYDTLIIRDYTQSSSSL

Q: With `Cc1ccc(-c2nnc(SCC(=O)Nc3nccs3)[nH]2)cc1` [Compound 9] as the compound, how does the “Myelination Index” value (OPC-DRG co-cultures) read?
A: 155.0 ± 12.08%

Q: And the remaining activity at 0.1 µM (ADR2B; [1])?
A: 99.9%

Q: What about the inhibition at 0.1 µM (ADR2B; [2]) of the same compound?
A: 0%

Q: What about the “% Of control specific binding” value (ADR2B; [3]) of the same compound?
A: 95.6%

Q: And the remaining activity at 0.1 µM (ADR2B; [4])?
A: 104%

Q: What about the “Agonist Response (% of Control)” value (CCR4; antagonist effect, 100 nM, single replicates 1st and 2nd, 0.1 µM) of the same compound?
A: 60.7% and 88.2%

Q: What about the inhibition at 0.1 µM (CCR4; read-out: % Inhibition of control agonist response) of the same compound?
A: -0.1%

Q: And the activity at 0.1 µM (CCR4; read-out: Agonist Response (% of Control), Mean, antagonist effect, 100 nM, mean of 2)?
A: 74.4%

Q: What about the remaining activity at 0.1 µM (mGluR5; [1]) of the same compound?
A: 104%

Q: What about the inhibition at 0.1 µM (mGluR5; [2]) of the same compound?
A: -4%

Q: What about the “% Of control specific binding” value (mGluR5; [3]) of the same compound?
A: 106.8%

Q: What about the remaining activity at 0.1 µM (mGluR5; [4]) of the same compound?
A: 102%

Q: And the remaining activity at 0.1 µM (M4; [1])?
A: 95.4%

Q: And the inhibition at 0.1 µM (M4; [2])?
A: 5%

Q: And the “% Of control specific binding” value (M4; [3])?
A: 95.1%

Q: What about the remaining activity at 0.1 µM (M4; [4]) of the same compound?
A: 95.7%
